Where two headings read alike, the source gives them in different places.
How the values were obtained:
HCC827 cells [1] = test: Gene expression analysis (qPCR of ALPP and HOPX); type: cell-based; details: HCC827, 1 μM CBP/p300 inhibitor in presence of Gefitinib, 24 h
Method: (§1) Equal amount of cDNA was then subjected to qPCR analysis using the Kapa SYBR fast kit (KK4611) in a 384 well format in a Roche Light Cycler 480. Gene expression of genes was evaluated by subtraction of housekeeping gene CT-values (b-Actin) from CT of the genes of interest, and by calculating the ΔΔCT by subtracting the DMSO control value from sample of interest to finally calculate fold change differences of treated versus control treated sample.
(§2) Data is from 2 independent experiments with qPCRs in duplicate (mean±SEM) (FIG. 1C-D).

NCI-H1975 cells [2] = test: Gene expression analysis (qPCR of ALPP and HOPX); type: cell-based; details: 24 h; for EGFR inhibitor induced gene expression (ALPP, HOPX): NCI-H1975, 1 μM CBP/p300 inhibitor in presence of 20 nM osimertinib
Method: as §1, §2

HCC827 cells [3] = test: Cell counting by nuclear fluorescent staining (Hoechst33342); type: cell-based; details: for Anti-proliferative activity / re-growth in presence of Gefitinib: in presence of 300 nM Gefitinib (FIG. 3); for Effect on cell proliferation as single agent: absence of EGFR inhibitor (FIG. 3 left)
Method: Several plates were seeded, as for each time point of cell counting one plate was fixed and stained for analysis. […] Cell cultivation was continued until time of fixation and analysis for each plate. For extended time-points, medium and drugs were replenished twice weekly.
At the given time plates were washed 3 times with PBS and cells fixed with 80 μl 4% PFA for 10 min, RT. After 3 wash steps with PBS cells were stained with 10 μg/ml Hoechst33342 (Thermo Scientific H12492) in 100 μl PBS for 2 h, RT, dark. After 3× PBS washing-steps, Hoechst33342 signals were acquired on in an automated imaging mode using a Zeiss Apotome with motorized X/Y stage and a 5× objective. Image analysis and determination of Hoechst33342 spots (nuclei) was done using ImageJ. Number of nuclei was plotted as function of time using GraphPad Prism.

HCC827 cells [4] = test: Label-free determination of cell proliferation (CELIGO); type: cell-based; details: for Development of drug resistance / re-growth: HCC827, combined with 100 nM osimertinib; for Development of drug resistance / re-growth / Effect on cell proliferation on their own: 21 days (FIG. 9); for Effect on cell proliferation on their own: HCC827, single agent (1 μM Compound A, 0.2 μM Compound C, 0.2 μM CCS1477, 1 μM FT-6876, 0.2 μM GNE-781)
NCI-H1975 cells [5] = test: as above; type: cell-based
HCC4006 cells = test: as above; details: for Development of drug resistance / re-growth: HCC4006, combined with 100 nM osimertinib; for Development of drug resistance / re-growth / Effect on cell proliferation on their own: 21 days (FIG. 10); for Effect on cell proliferation on their own: HCC4006, single agent (1 μM Compound A, 0.2 μM Compound C, 0.2 μM CCS1477, 1 μM FT-6876, 0.2 μM GNE-781)
Method: 2000 HCC4006 (ATCC; CRL2871) were seeded into 96 well plates (Greiner BioOne 655090) one day prior to drug treatment in RPMI medium containing 10% FCS and 2 mM L-Glutamine. The next day wells were imaged label-free using brightfield imaging on a CELIGO Image Cytometer to determine the initial cell number. Subsequently cells were treated with either DMSO, with single drugs (osimertinib and each of the CBP/p300 bromodomain inhibitors) or drug combinations of 100 nM osimertinib and one CBP/p300 bromodomain inhibitor with drug concentrations given below. Plates were regularly imaged over weeks using brightfield mode (CELIGO Imaging Cytometer) to track cell proliferation in each well over time. Growth medium and treatments were replenished twice weekly. […] Cell numbers were determined using CELIGO software's built-in “direct cell counting” analysis tool in the brightfield mode.

NCI-H1975 xenografts = test: NCI-H1975 xenograft tumor growth; type: in vivo, NMRI-Nude mice; details: 2 mg/kg osimertinib alone
Method: Tumor volume was measured using a manual caliper two to three times a week. The tumor volume was calculated using the formula: lager tumor diameter x square of the smaller tumor diameter divided by 2. Based on a linear fit of the mean tumor volumes the slopes of the curves were compared by regression analysis (two-tailed).
The response was determined by comparing tumor volume change at time t to its baseline: % tumor volume change=ΔVolt=100%×((Vt−Vinitial)/Vinitial). The Best Response was the minimum value of ΔVolt for t≥10 d. For each time t, the average of ΔVolt from t=0 to t was also calculated. The BestAvgResponse is defined as the minimum value of this average for t≥10 d. This metric captures a combination of speed, strength and durability of response into a single value. […] Mice that were sacrificed because of an adverse event before they had completed 14 d on trial were removed from the data set.
The response was determined by comparing tumor volume change at time t to its baseline: % tumor volume change=ΔVolt=100%×((Vt−Vinitial)/Vinitial). The Best Response was the minimum value of ΔVolt for t≥6 d. For each time t, the average of ΔVolt from t=0 to t was also calculated. The BestAvgResponse is defined as the minimum value of this average for t≥10 d. This metric captures a combination of speed, strength and durability of response into a single value. […] Mice that were sacrificed because of an adverse event before they had completed 14 d on trial were removed from the data set.

[6] = NCI-H1975, 50 nM osimertinib alone (FIG. 5)

## COc1cncc(-c2cc(Nc3cccc(F)c3)nc([C@@H]3CC[C@H](C)N(C(C)=O)C3)n2)c1 [Compound A]
HCC827 cells [1]
  EGFR inhibitor induced gene expression (ALPP, HOPX): reverse EGFR inhibitor induced gene expression
NCI-H1975 cells [2]
  EGFR inhibitor induced gene expression (ALPP, HOPX): reverse EGFR inhibitor induced gene expression
HCC827 cells [3]; in combination with 20 nM Gefitinib (FIG. 2A)
  Re-growth under continuous Gefitinib exposure: Re-growth is inhibited
HCC827 cells [3]
  Anti-proliferative activity / re-growth in presence of Gefitinib: potentiate the effect of the EGFR inhibitor
HCC827 cells [4]; HCC827, 300 nM Gefitinib + 1 μM Compound A, >22 days (FIG. 4)
  Re-growth in long-term cultures: significantly delays or completely prevents re-grow
HCC827 cells [4]; HCC827, 1 μM Compound A alone (FIG. 4)
  Effect on cell numbers on its own: weak/no effect on cell numbers
HCC827 cells [4]
  Development of drug resistance / re-growth: prevent the development of drug resistance
NCI-H1975 cells [5]; NCI-H1975, 50 nM osimertinib with 2.0, 0.5 or 0.125 μM co-treatment (FIG. 5)
  Growth long-term: delayed
NCI-H1975 cells [5]; NCI-H1975, 2 μM single agent (FIG. 5)
  Effect on cell numbers on their own: no/weak effect on cell numbers

## COC(=O)N1c2ccc3c(nc(Cc4ccccc4)n3[C@H]3CCC[C@H](C(=O)O)C3)c2CC[C@@H]1C [FT-6876]
HCC827 cells [4]
  Development of drug resistance / re-growth: prevent the development of drug resistance
  Effect on cell proliferation on their own: do not affect cell proliferation
HCC4006 cells
  Development of drug resistance / re-growth: prevent the development of drug resistance
  Effect on cell proliferation on their own: do not affect cell proliferation

## O=C1[C@H](Cc2ccc(O)cc2)N2C(=O)CCN(C(=O)NCc3ccccc3)[C@H]2CN1Cc1cccc2ccccc12 [ICG-001]
HCC827 cells [1]
  EGFR inhibitor induced gene expression (ALPP, HOPX): does not blunt EGFR-induced gene expression
NCI-H1975 cells [2]
  EGFR inhibitor induced gene expression (ALPP, HOPX): does not blunt EGFR-induced gene expression

## C=CC(=O)Nc1cc(Nc2nccc(-c3cn(C)c4ccccc34)n2)c(OC)cc1N(C)CCN(C)C [osimertinib]
NCI-H1975 cells [2]; NCI-H1975, EGFR inhibitor (20 nM osimertinib) alone
  ALPP and HOPX gene expression: upregulation of example genes ALPP and HOPX
HCC827 cells [4]
  Cell proliferation, initial: initially blocks cell proliferation
  Re-growth in long-term cultures: HCC827 cells re-grow if treated with osimertinib only
NCI-H1975 cells [5]; [6]
  Cell proliferation, initial: initially blocks cell proliferation
  Growth long-term: cells continue growing with a slow rate
NCI-H1975 xenografts
  Slope of linear regression fit of mean tumor volumes over time: +6.4
HCC4006 cells; HCC4006, 100 nM osimertinib alone (FIG. 10)
  Cell proliferation, initial: initially blocks cell proliferation
HCC4006 cells; HCC4006, 100 nM osimertinib only (FIG. 10)
  Re-growth in long-term cultures: HCC4006 cells re-grow if treated with osimertinib only

## CNC(=O)N1CCc2c(c(N3CCCc4cc(-c5cnn(C)c5)c(C(F)F)cc43)nn2C2CCOCC2)C1 [GNE-781]
HCC827 cells [4]
  Development of drug resistance / re-growth: prevent the development of drug resistance
  Effect on cell proliferation on their own: do not affect cell proliferation
HCC4006 cells
  Development of drug resistance / re-growth: prevent the development of drug resistance
  Effect on cell proliferation on their own: do not affect cell proliferation

## CC(=O)N1C[C@H](c2nc(Nc3ccc4[nH]ncc4c3)cc(-c3cccnc3)n2)CC[C@@H]1C [Compound 00030]
HCC827 cells [3]
  Effect on cell proliferation as single agent: absence of an anti-proliferative effect
  Anti-proliferative activity / re-growth in presence of Gefitinib: potentiate the effect of the EGFR inhibitor

## COc1ccc(CCc2nc3cc(-c4c(C)noc4C)ccc3n2C[C@H](C)N2CCOCC2)cc1Cl [SGC-CBP30]
HCC827 cells [3]
  Effect on cell proliferation as single agent: do not affect cell proliferation
  Anti-proliferative activity / re-growth in presence of Gefitinib: potentiate the effect of the EGFR inhibitor

## CNC(=O)Nc1ccc2c(c1)CC[C@@]21OC(=O)N(CC(=O)N(Cc2ccc(F)cc2)[C@@H](C)C(F)(F)F)C1=O [Compound A-485]
HCC827 cells [1]
  EGFR inhibitor induced gene expression (ALPP, HOPX): reverse EGFR inhibitor induced gene expression
NCI-H1975 cells [2]
  EGFR inhibitor induced gene expression (ALPP, HOPX): reverse EGFR inhibitor induced gene expression
HCC827 cells [3]
  Effect on cell proliferation as single agent: affect cell proliferation

## COc1cc2ncnc(Nc3ccc(F)c(Cl)c3)c2cc1OCCCN1CCOCC1 [Gefitinib]
HCC4006 cells; HCC4006, 300 nM Gefitinib alone (FIG. 8)
  Cell proliferation, initial: initially completely blocks cell proliferation
HCC4006 cells; HCC4006, 300 nM Gefitinib only (FIG. 8)
  Re-growth in long-term cultures: HCC4006 cells re-grow if treated with Gefitinib only
